Tested on: NL4-3 strain of HIV-1
Test: Inhibition of HIV replication: cyto-protection in Cell-Titer-Glo viability assay, MT4 cells infected with NL4-3 virus
Type: cell-based
Settings: Human immunodeficiency virus 1, NL43, 120 h, concentration leading to 50% of cyto-protection, 5 days incubation, CellTiter-Glo luminescence
Procedure: The antiviral activity, particularly against HIV, of compounds according to the invention is evaluated by the protocol described below.
Preparation of Virus Stock of the NL4-3 Strain of HIV-1 (Adachi et al, J Virol, 1986, 59(2):284-91).
The virus was prepared as described in Lopez et al (Lopez et al, Proc Natl Acad Sci USA., 2006, 103(40):14947-52, by transfecting 2×10^6 293 T cells (CRL-1573, ATCC) with following modifications: 6 μg of NL4-3 proviral DNA molecular clone were mixed with Fugene 6 transfection reagent from Roche, and used according to manufacturer's instructions. Forty eight hours later, transfected cell supernatants were harvested, filtered through 0.45-μm-pore-size filters, quantified for HIV-1 p24 antigen by using a Innotest HIV antigen mAb assay (Ingen) according to manufacturer's instructions, and used in infection experiments.
Serial dilutions of compounds to be tested were prepared in complete RPMI medium from 10 mM DMSO stock solutions, and distributed in a volume of 20 μL in 96 well Falcon 353072 Microtest™ tissue culture plate, in order to get 0.5% DMSO final concentration in each well, after the addition of infected cells. Control wells contained also 0.5% DMSO final concentration but no compound.
MT^4 cells (from the NIH AIDS Research and Reference Reagent Program) in RPMI complete medium were counted (10×10^6 cells per well in Falcon 353047 Multiwell™ 24 well) and infected for 2 hours at 37°, at a multiplicity of infection (moi) of 0.0001-0.00001. Cells were then centrifuged 3 min at 3000 rpm, and washed two times in 1 ml PBS to remove viruses that have not entered in cells. Infected cells were resuspended in complete RPMI at 1.25×10^6 cells/ml, and 80 μl of infected cells were distributed in each well containing compounds to be tested or control wells. The plates were then incubated at 37° for 5 days.
Assay Used to Measure the Inhibition of HIV Replication by the Compounds (According to (According to Gregg S. Jones et al., Antimicrobial Agents and Chemotherapy, 2009, 53 (3): 1194-1203).
After 5 days of incubation, 50 μl of CellTiter-Glo reagent (Promega Biosciences, Inc., Madison Wis., USA) were added to each well. Cell lysis was carried out at room temperature during 10 min, 150 μl of lysates were transferred in Packard Optiplate 96 well, and luminescence was read on a Fluoroskan (Thermo Scientific).
The EC50, or effective concentration 50, is the concentration of compound leading to 50% of cyto-protection in a Cell-Titer-Glo® viability assay based on MT^4 cells infected with NL4-3 virus (table 1).

| Structure (SMILES) | EC50 |
| --- | --- |
| CC(C)(C)OC(C(=O)O)c1c(C(F)(F)F)ccc(-c2ccncc2)c1-c1ccc2c(c1)CCCO2 (stereo not drawn) [Example 2, 2-(tert-butoxy)-2-[2-(3,4-dihydro-2H-1-benzopyran-6-yl)-3-(pyridin-4-yl)-6-(trifluoromethyl)phenyl]acetic acid] | 0.25 µM |
| CC(C)(C)OC(C(=O)O)c1c(C(F)(F)F)ccc(-c2ccccc2)c1-c1ccc2c(c1)CCCO2 (stereo not drawn) [Example 1, 2-(tert-butoxy)-2-[2-(3,4-dihydro-2H-1-benzopyran-6-yl)-3-phenyl-6-(trifluoromethyl)phenyl]acetic acid] | 0.26 µM |
| Cn1cc(-c2ccc(C(F)(F)F)c(C(OC(C)(C)C)C(=O)O)c2C2=CCC(C)(C)CC2)cn1 (stereo not drawn) [Example 15, 2-(tert-butoxy)-2-[2-(4,4-dimethylcyclohex-1-en-1-yl)-3-(1-methyl-1H-pyrazol-4-yl)-6-(trifluoromethyl)phenyl]acetic acid] | 0.15 µM |
| CC(C)(C)OC(C(=O)O)c1c(C(F)(F)F)ccc(-n2cc(Cl)cn2)c1-c1ccc2c(c1)CCCO2 (stereo not drawn) [Example 10, 2-[3-(4-chloro-1H-pyrazol-1-yl)-2-(3,4-dihydro-2H-1-benzopyran-6-yl)-6-(trifluoromethyl)phenyl]-2-(tert-butoxy)acetic acid] | 0.48 µM |
| CNC(=O)c1ccc(-c2ccc(C(F)(F)F)c(C(OC(C)(C)C)C(=O)O)c2-c2ccc3c(c2)CCCO3)cc1 (stereo not drawn) [Example 19, 2-(tert-butoxy)-2-[2-(3,4-dihydro-2H-1-benzopyran-6-yl)-3-[4-(methylcarbamoyl)phenyl]-6-(trifluoromethyl)phenyl]acetic acid] | 0.33 µM |
| CC(=O)Nc1ccc(-c2ccc(C(F)(F)F)c(C(OC(C)(C)C)C(=O)O)c2-c2ccc3c(c2)CCCO3)cc1 (stereo not drawn) [Example 21, 2-(tert-butoxy)-2-[3-(4-acetamidophenyl)-2-(3,4-dihydro-2H-1-benzopyran-6-yl)-6-(trifluoromethyl)phenyl]acetic acid] | 0.17 µM |
| CC(C)(C)OC(C(=O)O)c1c(C(F)(F)F)ccc(-c2ccncc2F)c1-c1ccc2c(c1)CCCO2 (stereo not drawn) [Example 17, 2-(tert-butoxy)-2-[2-(3,4-dihydro-2H-1-benzopyran-6-yl)-3-(3-fluoropyridin-4-yl)-6-(trifluoromethyl)phenyl]acetic acid] | 0.25 µM |
| CCCn1cc(-c2ccc(C(F)(F)F)c(C(OC(C)(C)C)C(=O)O)c2-c2ccc3c(c2)CCCO3)ccc1=O (stereo not drawn) [Example 25, 2-(tert-butoxy)-2-[2-(3,4-dihydro-2H-1-benzopyran-6-yl)-3-(6-oxo-1-propyl-1,6-dihydropyridin-3-yl)-6-(trifluoromethyl)phenyl]acetic acid] | 0.22 µM |
| CC(C)Cn1cc(-c2ccc(C(F)(F)F)c(C(OC(C)(C)C)C(=O)O)c2-c2ccc3c(c2)CCCO3)ccc1=O (stereo not drawn) [Example 32, 2-(tert-butoxy)-2-[2-(3,4-dihydro-2H-1-benzopyran-6-yl)-3-[1-(2-methylpropyl)-6-oxo-1,6-dihydropyridin-3-yl]-6-(trifluoromethyl)phenyl]acetic acid] | 0.085 µM |
| CC(C)(C)OC(C(=O)O)c1c(C(F)(F)F)ccc(-c2ccc(=O)n(Cc3ccccc3)c2)c1-c1ccc2c(c1)CCCO2 (stereo not drawn) [Example 26, 2-[3-(1-benzyl-6-oxo-1,6-dihydropyridin-3-yl)-2-(3,4-dihydro-2H-1-benzopyran-6-yl)-6-(trifluoromethyl)phenyl]-2-(tert-butoxy)acetic acid] | 0.44 µM |
| CC(C)(C)OC(C(=O)O)c1c(C(F)(F)F)ccc(-c2cccn(CC3CCC3)c2=O)c1-c1ccc2c(c1)CCCO2 (stereo not drawn) [Example 38, 2-(tert-butoxy)-2-{3-[1-(cyclobutylmethyl)-2-oxo-1,2-dihydropyridin-3-yl]-2-(3,4-dihydro-2H-1-benzopyran-6-yl)-6-(trifluoromethyl)phenyl}acetic acid] | 0.13 µM |
| CC1(C)CC=C(c2c(-c3ccncc3)ccc(C(F)(F)F)c2C(OC(C)(C)C)C(=O)O)CC1 (stereo not drawn) [Example 11, 2-(tert-butoxy)-2-[2-(4,4-dimethylcyclohex-1-en-1-yl)-3-(pyridin-4-yl)-6-(trifluoromethyl)phenyl]acetic acid] | 0.91 µM |
| CC(C)(C)OC(C(=O)O)c1c(C(F)(F)F)ccc(C2=CCCC2)c1-c1ccc2c(c1)CCCO2 (stereo not drawn) [Example 3, 2-(tert-butoxy)-2-[3-(cyclopent-1-en-1-yl)-2-(3,4-dihydro-2H-1-benzopyran-6-yl)-6-(trifluoromethyl)phenyl]acetic acid] | 0.4 µM |
| CCCc1cccc(-c2ccc(C(F)(F)F)c(C(OC(C)(C)C)C(=O)O)c2-c2ccc3c(c2)CCCO3)c1 (stereo not drawn) [Example 29, 2-(tert-butoxy)-2-[2-(3,4-dihydro-2H-1-benzopyran-6-yl)-3-(3-propylphenyl)-6-(trifluoromethyl)phenyl]acetic acid] | 0.43 µM |
| CC(C)(C)OC(C(=O)O)c1c(C(F)(F)F)ccc(-c2ccc(N)cc2)c1-c1ccc2c(c1)CCCO2 (stereo not drawn) [Example 20, 2-[3-(4-aminophenyl)-2-(3,4-dihydro-2H-1-benzopyran-6-yl)-6-(trifluoromethyl)phenyl]-2-(tert-butoxy)acetic acid] | 0.15 µM |
| CC(C)(C)OC(C(=O)O)c1c(C(F)(F)F)ccc(-c2ccc(=O)n(C3CC3)c2)c1-c1ccc2c(c1)CCCO2 (stereo not drawn) [Example 39, 2-(tert-butoxy)-2-[3-(1-cyclopropyl-6-oxo-1,6-dihydropyridin-3-yl)-2-(3,4-dihydro-2H-1-benzopyran-6-yl)-6-(trifluoromethyl)phenyl]acetic acid] | 0.33 µM |
| CC(C)(C)OC(C(=O)O)c1c(C(F)(F)F)ccc(-n2ccc(-c3ccccc3)n2)c1-c1ccc2c(c1)CCCO2 (stereo not drawn) [Example 5, 2-(tert-butoxy)-2-[2-(3,4-dihydro-2H-1-benzopyran-6-yl)-3-(3-phenyl-1H-pyrazol-1-yl)-6-(trifluoromethyl)phenyl]acetic acid] | 0.76 µM |
| CC(C)(C)OC(C(=O)O)c1c(C(F)(F)F)ccc(-c2ccc(C(N)=O)cc2)c1-c1ccc2c(c1)CCCO2 (stereo not drawn) [Example 13, 2-(tert-butoxy)-2-[3-(4-carbamoylphenyl)-2-(3,4-dihydro-2H-1-benzopyran-6-yl)-6-(trifluoromethyl)phenyl]acetic acid] | 0.83 µM |
| Cc1ccc(-c2ccc(=O)n(CC3CCC3)c2)c(-c2ccc3c(c2C)CCCO3)c1C(OC(C)(C)C)C(=O)O (stereo not drawn) [Example 37, 2-(tert-butoxy)-2-[3-(1-cyclobutylmethyl-6-oxo-1,6-dihydro-pyridin-3-yl)-6-methyl-2-[5-methyl-(3,4-dihydro-2H-1-benzopyran-6-yl)]phenyl]acetic acid] | 0.31 µM |
| CC(C)(C)OC(C(=O)O)c1c(C(F)(F)F)ccc(-c2ccnc(OCc3ccccc3)c2)c1-c1ccc2c(c1)CCCO2 (stereo not drawn) [Example 6, 2-{3-[2-(benzyloxy)pyridin-4-yl]-2-(3,4-dihydro-2H-1-benzopyran-6-yl)-6-(trifluoromethyl)phenyl}-2-(tert-butoxy)acetic acid] | 0.26 µM |
| CC(C)(C)OC(C(=O)O)c1c(C(F)(F)F)ccc(-c2ccc(=O)n(CCC3CC3)c2)c1-c1ccc2c(c1)CCCO2 (stereo not drawn) [Example 31, 2-(tert-butoxy)-2-{3-[1-(2-cyclopropylethyl)-6-oxo-1,6-dihydropyridin-3-yl]-2-(3,4-dihydro-2H-1-benzopyran-6-yl)-6-(trifluoromethyl)phenyl}acetic acid] | 0.26 µM |
